Measured values published in patent US12030896B2, “PIKfyve inhibitors” (Mayo Foundation for Medical Education and Research, priority 2018, dated 2024).

Legend:
Format in all cases: cell-based
[1] = system: U251 or RKO cells; assay: Cathepsin D western blotting; details: 18 hours
Description: Macroautophagy (hereafter “autophagy”) is a process that requires precise fusion of endosomes, autophagosomes, and lysosomes. Lysates from cells treated with Example 1 were prepared and probed by western blotting for LC3-I and LC3-II. Increased levels of LC3-II and increased p62 (sequestesome) were found showing the increased drive to undergo autophagy, in the face of inability to complete the process (i.e. ineffective autophagy). Lysosomes are the final destination of proteins destined for degradation by autophagy, and proteolysis in this organelle depends upon cathepsins among other enzymes.
U251 or RKO cells were treated with Example 1 at the indicated concentrations for 18 hours, and then analyzed by western blotting for cathepsin D and actin (loading control).
U251 or RKO cells were plated onto 10 cm tissue culture dishes and grown in the conditions described previously. When cells were growing in log phase and reached approximately 60% confluency, Example 1 was diluted into the growth media at the indicated concentrations. Cells were incubated at 5% CO2, 37° C. for 18 hr, then washed and harvested as described previously. Cells were pelleted by centrifugation at 180×g, resuspended in 20 mL of 1×PBS pH 7.4, and centrifuged again. […]

[2] = system: Human osteosarcoma cells (U2OS, 143B, MG63, and SAOS2) and human pancreatic cancer cells (Panc-1, CFPAC); assay: Killing of osteosarcoma and pancreatic cell lines (Alamar Blue); details: 72 hrs
Description: Human osteosarcoma cells (U2OS, 143B, MG63, and SAOS2) and human pancreatic cancer cells (Panc-1, CFPAC) were similarly tested for killing by the compound, as shown in FIG. 5. All experiments in FIG. 5 were performed using DMEM:F12 media (Life Technologies) as the base formulation for “complete” media for experiments with 143B and MG63 cells. Also, Alamar Blue was used to assay the relative number of viable cells per well after 72 hrs of growth. For these assays, growth media was removed from the cells, and replaced with fresh (“complete) media containing Alamar Blue reagent (Life Technologies) diluted 1:10. Plates were incubated at 5% CO2, 37° C. for 40 min then removed from the incubator and fluorescence was measured using a Synergy H1 microplate reader (Excitation: 560 nm Emission: 590 nm). Values represent raw photo counts minus the value of a well with Alamar Blue reagent (1:10 in medium) but no cells.

[3] = system: Glioblastoma (T98G, U251) or colorectal cancer cell lines (HT29, RKO, HCT116); assay: Killing of glioblastoma and colorectal cancer cell lines by Example 3
Description: Experiments were performed using DMEM-based media for the glioblastoma lines and RMPI-based media for the colorectal lines.

With `Cc1ccc(Nc2nc(N/N=C/c3c[nH]c4ccccc34)nc(N3CCOCC3)n2)cc1` [Example 1, (E)-4-(2-((1H-indol-3-yl)methylene)hydrazinyl)-6-morpholino-N-(p-tolyl)-1,3,5-triazin-2-amine] as the compound, how does the mature cleaved cathepsin [1] read?
The mature cleaved cathepsin was “relative loss”.

What about the “uncleaved precursor cathepsin D” value [1] of the same compound?
Its value is “accumulation”.

And the cell killing [2]?
The cell killing was “killing”.

`Cc1ccc(Nc2nc(N/N=C/c3c[nH]c4ccccc34)cc(N3CCOCC3)n2)cc1` [Example 3, (E)-4-(2-((1H-indol-3-yl)methylene)hydrazinyl)-6-morpholino-N-(p-tolyl)pyrimidin-2-amine] was tested. Which sensitivity to killing [3] did it give?
Its sensitivity to killing is “sensitive to killing”.
